According to patent US20230339977A1, “SUBSTITUTED HETEROARYL COMPOUND, AND COMPOSITION AND APPLICATION THEREOF” (SUNSHINE LAKE PHARMA CO., LTD., priority 2020, published 2023):
Like-named read-outs stand apart in the source and are kept apart here.

Experiments:
[1] = Pharmacokinetic evaluation in rats after intravenous injection and oral administration; assay type: in vivo; conditions: rat, plasma; for AUC(0-t): read-out: PK AUClast; for Cmax: read-out: PK Cmax; for half-life: read-out: PK T½ (converted)
Method: The analytical LC/MS/MS system includes an Agilent 1200 series vacuum degasser, a binary syringe pump, an orifice plate autosampler, a column oven, and an Agilent G6430 triple quadrupole mass spectrometer with an electrospray ionization (ESI) source.
Agilent XDB-C18, 2.1 × 30 mm, 3.5 µM column was used to analysis, 5 µL sample was injected. Analytical conditions: Mobile phases were 0.1% formic acid in water (A) and 0.1% formic acid in methanol (B). The flow rate was 0.4 mL/min.
In addition, Agilent 6330 series LC/MS/MS spectrometer was used for analysis, equipped with G1312A binary syringe pump, G1367A automatic sampler and G1314C UV detector; LC/MS/MS spectrometer used ESI radiation source. Optimum analysis was achieved using standards with appropriate cation model processing and MRM conversion for each analyte. A Capcell MP-C18 column, 100 × 4.6 mm I.D., 5 µM (Phenomenex, Torrance, California, USA) was used during the analysis. Mobile phase was 5 mM ammonium acetate, 0.1% methanol in water (A): 5 mM ammonium acetate, 0.1% methanol in acetonitrile (B) (70/30, v/v); flow rate was 0.6 mL/min; column temperature was maintained at room temperature; 20 µL of sample was injected.
The present invention evaluates the pharmacokinetic studies of the compounds of the present invention in mice, rats, dogs or monkeys. The compounds of the present invention were administered in the form of aqueous solution or 2% HPMC + 1% Tween-80 aqueous solution, 5% DMSO + 5% saline solution, 4% MC or capsule. For intravenous administration, animals were dosed at about 0.5, 0.6, 1 or 2 mg/kg. The oral doses (p.o.) were 5 or 10 mg/kg for rats and mice, and 10 mg/kg for dogs and monkeys. Bloods (0.3 mL) were taken at time points 0.25, 0.5, 1.0, 2.0, 3.0, 4.0, 6.0, 8.0, 12 and 24 h and centrifuged at 3,000 or 4,000 rpm for 10 min. Plasma solutions were collected and stored at -20° C. or -70° C. until LC/MS/MS analysis as described above. […] Table 2 is the experimental results of the pharmacokinetic characteristics of the compounds provided in the examples of the present invention in rats.

JAK1/TYK2 = experiment: Cell level activity test of JAK1/TYK2 (IFN-α induced STAT3 phosphorylation in PBMC); assay type: cell-based; conditions: Homo sapiens; P-STAT3 by ELISA in PBMC, compound 1 h, IFN-α 5000 U/mL 15 min; read-out: IC50 nM (JAK 1 /TYK2)
Method: IFN-α can induce the phosphorylation of STAT3 downstream of JAK1/TYK2 in PBMC, and by measuring the level of STAT3 phosphorylation, the activity of the compound on JAK1/TYK2 at the cell level can be reflected.
Whole blood was collected from healthy subjects, anticoagulated with heparin sodium, and PBMC (human peripheral blood mononuclear cells) were extracted. PBMC were seeded in a 96-well culture plates at a density of 1*106/well. Positive wells and negative wells were added with the same volume of DMSO as the compound, and the final concentration of DMSO was 0.5%. The compounds were incubated with the cells at 37° C. for 1 h, and then stimulated by adding IFN-α at a final concentration of 5000 U/mL, an equal volume of medium was added to the negative wells, and incubated for 15 min. The cells were centrifuged to remove the supernatant, then lysed, and P-STAT3 was measured according to the instructions of the ELISA kit, the absorbance was read at 450 nm, and the IC50 value or inhibition rate was calculated.

- AUC(0-t) ([1]; IV 1 mg/kg): 1140 ng·h/mL
- Cmax ([1]; IV 1 mg/kg): 1010 ng/mL
- half-life ([1]; IV 1 mg/kg): 0.971 h
- AUC(0-t) ([1]; PO 5 mg/kg): 9430 ng·h/mL
- Cmax ([1]; PO 5 mg/kg): 1990 ng/mL
- half-life ([1]; PO 5 mg/kg): 2.71 h
- bioavailability ([1]; oral bioavailability, PO 5 mg/kg): 165%
- IC50 (JAK1/TYK2): 95.8 nM
SMILES: CC(=O)Nc1cc2c(-c3ccc4c(n3)C3(CCOC3)OC4)cn(C)c2cn1 (centres unmarked) [Example 2, N-(3-(4,5-Dihydro-2H,5′H-Spiro[Furan-3,7′-Furo[3,4-b]Pyridin]-2′-yl)-1-Methyl-1H-Pyrrolo[2,3-c]Pyridin-5-yl)Acetamide]
